Our source for the TGI values is PubChem BioAssay (NCI).

Some test systems named below: SNB-75 CNS; NCI-H522 lung; 786-0 renal; OVCAR-3 ovarian; HS 578T breast; CCRF-CEM leukemia; KM12 colon; EKVX NSCLC; M14 melanoma; A549 NSCLC; HOP-92 NSCLC; NCI-H23 lung; RXF 393 renal; OVCAR-4 ovarian; HCT-15 colon; HCC-2998 colon; SF-539 CNS; MDA-MB-435; SK-MEL-2 melanoma; DU-145 prostate.
Holding throughout (experiment): inhibition of tumour cell growth, NCI panel, 48 h

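Where inhibition never reached the appropriate level, the endpoint shown equals the highest concentration tested. Otherwise, values were interpolated linearly from a five-concentration, 48-hour dose response in 96-well plates. Definition used: TGI = concentration required for complete inhibition of growth.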 Bounds are passed on as bounds.

For the compound `CC(C)(CCCCC(C)(C)NCC1COc2ccccc2O1)NCC1COc2ccccc2O1` (stereo unspecified), the TGI in the assay with SNB-75 CNS, in the assay on NCI-H522 lung, with 786-0 renal, in the assay on OVCAR-3 ovarian, with HS 578T breast and in the assay with CCRF-CEM leukemia was over 10 µM in each case. The TGI in the assay with KM12 colon is over 10 µM; in the assay with EKVX NSCLC, over 10 µM; with M14 melanoma, 3.4 µM; in the assay with A549 NSCLC, over 10 µM; in the assay on HOP-92 NSCLC, 7.43 µM; in the assay with NCI-H23 lung it was over 10 µM. Also, the TGI with RXF 393 renal was 8.83 µM; in the assay on OVCAR-4 ovarian it was over 10 µM; in the assay with HCT-15 colon it was over 10 µM; with HCC-2998 colon, 4.73 µM; in the assay with SF-539 CNS, 3.34 µM; in the assay on MDA-MB-435, 3.6 µM. For the same compound, the TGI in the assay with SK-MEL-2 melanoma was 6.68 µM; in the assay with DU-145 prostate, over 10 µM.

On to `CCn1c(=O)c2c3ccc(O)cc3oc2c2ccc(O)cc21`, for which the TGI with SNB-75 CNS was over 100 µM; in the assay with NCI-H522 lung, over 100 µM; with 786-0 renal it was over 100 µM; in the assay on OVCAR-3 ovarian it was over 100 µM; with HS 578T breast it was 70.4 µM; in the assay on CCRF-CEM leukemia, over 100 µM. Moreover, the TGI was over 100 µM in the assay with KM12 colon; 7.39 µM with EKVX NSCLC; over 100 µM in the assay with M14 melanoma; over 100 µM in the assay on A549 NSCLC; over 100 µM with HOP-92 NSCLC; over 100 µM with NCI-H23 lung. Besides, the TGI with RXF 393 renal, in the assay on OVCAR-4 ovarian, in the assay with HCT-15 colon, in the assay with HCC-2998 colon, in the assay with SF-539 CNS and in the assay with MDA-MB-435 was over 100 µM each time. In the assay with DU-145 prostate, the TGI was over 100 µM.

On to `COc1ccccc1CNCc1nc2ccccc2[nH]1`, for which the TGI in the assay with SNB-75 CNS, in the assay on NCI-H522 lung, in the assay with 786-0 renal, in the assay with OVCAR-3 ovarian, in the assay on HS 578T breast and with CCRF-CEM leukemia was over 100 µM in each case. The TGI in the assay with KM12 colon, in the assay with EKVX NSCLC, with M14 melanoma, in the assay with A549 NSCLC, with HOP-92 NSCLC and in the assay with NCI-H23 lung was over 100 µM in each case. Also, the TGI in the assay with RXF 393 renal, in the assay with OVCAR-4 ovarian, with HCT-15 colon, in the assay on HCC-2998 colon, with SF-539 CNS and in the assay on MDA-MB-435 was over 100 µM in each case. For the same compound, the TGI in the assay on SK-MEL-2 melanoma and in the assay on DU-145 prostate was over 100 µM in each case.

With `Cc1ccnc2nc3[nH]c4ccccc4c3cc12`, the TGI was 85.8 µM in the assay on SNB-75 CNS; over 100 µM in the assay on NCI-H522 lung; 83.7 µM in the assay on 786-0 renal; over 100 µM with OVCAR-3 ovarian; over 100 µM in the assay with HS 578T breast; over 100 µM in the assay with CCRF-CEM leukemia. Further, the TGI in the assay on KM12 colon, in the assay on EKVX NSCLC, in the assay on M14 melanoma, with A549 NSCLC, with HOP-92 NSCLC and in the assay on NCI-H23 lung was over 100 µM each time. The TGI in the assay on RXF 393 renal, in the assay on OVCAR-4 ovarian, with HCT-15 colon, in the assay with HCC-2998 colon, in the assay with SF-539 CNS and with MDA-MB-435 was over 100 µM throughout. Besides, the TGI in the assay with SK-MEL-2 melanoma and in the assay on DU-145 prostate was over 100 µM in each case.

`CCOC(=O)c1c(-c2ccccc2)[nH]c2ccc(Cl)cc2c1=O`: the TGI with SNB-75 CNS is over 100 µM; with NCI-H522 lung, 60.8 µM; in the assay on 786-0 renal, over 100 µM; with OVCAR-3 ovarian it was 38.9 µM; in the assay on HS 578T breast it was over 100 µM; with CCRF-CEM leukemia, over 100 µM. Further, the TGI was over 100 µM in the assay on KM12 colon; over 100 µM in the assay with EKVX NSCLC; over 100 µM with M14 melanoma; over 100 µM in the assay on A549 NSCLC; 73.6 µM in the assay with HOP-92 NSCLC; over 100 µM in the assay with NCI-H23 lung. Further, the TGI in the assay with RXF 393 renal is over 100 µM; with OVCAR-4 ovarian it was 44.8 µM; with HCT-15 colon, over 100 µM; with HCC-2998 colon, over 100 µM; in the assay with SF-539 CNS, over 100 µM; in the assay on MDA-MB-435 it was over 100 µM. The TGI in the assay with SK-MEL-2 melanoma and in the assay with DU-145 prostate was over 100 µM throughout.

As for `NC(=O)NC(=O)c1ccc(NC(=O)CBr)cc1`, the TGI with SNB-75 CNS was determined as 4.19 µM; in the assay with NCI-H522 lung it was 0.277 µM; in the assay with 786-0 renal, 0.919 µM; in the assay with OVCAR-3 ovarian it was 2.74 µM; in the assay with HS 578T breast it was 7.37 µM; in the assay on CCRF-CEM leukemia, 0.376 µM. Further, the TGI with KM12 colon is 10.1 µM; in the assay on EKVX NSCLC, 5.41 µM; in the assay with A549 NSCLC, over 32.6 µM; with HOP-92 NSCLC, 4.59 µM; in the assay on NCI-H23 lung, 4.59 µM; in the assay with RXF 393 renal it was 3.32 µM. In addition, the TGI came to 4.56 µM in the assay on HCT-15 colon; 25.5 µM with HCC-2998 colon; 6.35 µM with SF-539 CNS; 3.06 µM in the assay on MDA-MB-435; 4.61 µM with SK-MEL-2 melanoma; 6.92 µM in the assay with DU-145 prostate.

For the compound `O=C(/C=C\c1ccccc1-c1ccccc1)c1ccccc1`, the TGI in the assay on SNB-75 CNS, in the assay on NCI-H522 lung, in the assay with 786-0 renal, in the assay on OVCAR-3 ovarian, in the assay on HS 578T breast and in the assay with CCRF-CEM leukemia was over 100 µM throughout. Further, the TGI with KM12 colon was over 100 µM; with EKVX NSCLC, over 100 µM; in the assay with M14 melanoma, over 100 µM; in the assay on A549 NSCLC, 91.9 µM; in the assay with HOP-92 NSCLC, over 100 µM; with NCI-H23 lung, over 100 µM. For the same compound, the TGI in the assay with RXF 393 renal, with OVCAR-4 ovarian, in the assay on HCT-15 colon, in the assay with HCC-2998 colon, in the assay with SF-539 CNS and with MDA-MB-435 was over 100 µM each time. The TGI in the assay with DU-145 prostate is over 100 µM.
